Reference: patent US20220370468A1, “Methods of treating sleep disorders associated with pain” (Astellas Pharma Global Development, Inc., priority 2019, published 2022)

Tests used:
[1] = tested on: patients with fibromyalgia; test: Phase 2a randomized double-blind placebo-controlled study: mean daily average pain score (NRS); assay type: in vivo, human
Description: (§1) A phase 2a, randomized, double-blind, placebo-controlled, parallel group study was conducted at 24 sites in the United States to assess the analgesic efficacy and safety of the compound of Formula (I) in patients with fibromyalgia. The study consisted of the following: a screening period of up to 42 days, which included a washout period and a 7-day baseline diary run-in; a 57-day double-blind randomized treatment period with site visits at Days 1, 15, 29, and 57; and a 4-week follow-up period consisting of a clinic visit after 2 weeks and a phone call after 4 weeks. The study was carried out in accordance with the Declaration of Helsinki and approved by the relevant Institutional Review Boards. All participants provided written informed consent prior to the initiation of any study procedures.
Male and female patients aged 18 to 80 years were included in the trial if they met the American College of Rheumatology (ACR) 1990 and 2010 fibromyalgia diagnostic criteria at screening (Wolfe et al., 1990; Wolfe et al., 2010b). The core diagnostic criteria for fibromyalgia are defined by the 1990 criteria (Wolfe et al., 1990), and while ACR has published newer criteria, the 1990 version is still commonly utilized in clinical trials. […]
The primary efficacy endpoint for pain was change from baseline to Week 8 in mean daily average pain score assessed by the Numeric Rating Scale (NRS; 0 to 10 scale). […]
(§2) Secondary efficacy endpoints included the number of patients achieving a ≥30% or ≥50% reduction in mean daily average pain score assessed by NRS (0 to 10 scale) from baseline to Week 8 and end of treatment (EOT; Day 57); change from baseline to Weeks 2, 4, 8, and EOT in the FIQR function, symptoms, and overall impact subscales; and overall improvement assessed by patient global impression of change (PGIC) (Rampakakis et al., 2015) at Weeks 2, 4, 8, and EOT.

[2] = tested on: patients with fibromyalgia; test: Phase 2a study: Fibromyalgia Impact Questionnaire Revised (FIQR); assay type: in vivo, human; conditions: for FIQR total score improvement from baseline, LS mean difference versus placebo: ANCOVA
Description: as §1
Male and female patients aged 18 to 80 years were included in the trial if they met the American College of Rheumatology (ACR) 1990 and 2010 fibromyalgia diagnostic criteria at screening (Wolfe et al., 1990; Wolfe et al., 2010b). The core diagnostic criteria for fibromyalgia are defined by the 1990 criteria (Wolfe et al., 1990), and while ACR has published newer criteria, the 1990 version is still commonly utilized in clinical trials. To meet ACR 1990 criteria, patients must have had widespread pain for at least 3 months, defined as the presence of pain on the right and left sides of the body, pain above and below the waist, and pain in the axial skeleton (cervical spine, anterior chest, thoracic spine, or low back) (Wolfe et al., 1990). They must also have had pain in at least 11 of 18 tender point sites on digital palpation performed with an approximate force of 4 kg. To meet the ACR 2010 criteria, patients needed to have a widespread pain index (WPI) score of ≥7 and a symptom severity (SS) scale score ≥5, or a WPI score 3-6 and an SS scale score ≥9 (Wolfe et al., 2010b). Symptoms must have been present at a similar level for at least 3 months and patients must have been free of any other disorder that could have explained the pain.
Eligible patients were randomized 1:1 using Interactive Response Technology to receive oral Compound of Formula (I) 15 mg (three capsules of 5 mg) or matching placebo capsules, each given once daily in the morning, with or without food, for 8 weeks.
as §2
Questionnaires on efficacy, such as FIQR and PGIC, were completed during study visits. The FIQR captures the full spectrum of problems related to fibromyalgia and the responses to therapy, ranging from activities of daily living, overall impact, and symptoms (Bennett et al., 2009). Patients answered each question on an 11-point NRS over a recall period of the last 7 days or the last time the activity was performed (for the physical function domain if the activity was not performed within the 7-day recall period). The PGIC is a self-administered 7-point Likert scale that asks patients to evaluate their fibromyalgia relative to baseline (from “very much improved” to “very much worse”) (Rampakakis et al., 2015).
In FIG. 2, the change from baseline in FIQR total score is depicted. The FIQR total score represents the sum of the three sub scale scores: symptom, function, and overall impact. The symptom sub scale accounts for 50%, the function subscale accounts for 30%, and the overall impact subscale accounts for 20% of the total score. Data from double-blind period are presented as LS mean±standard error; data from follow-up period are presented as mean±standard error. […]

[3] = tested on: patients with fibromyalgia; test: Phase 2a study: patient global impression of change (PGIC); assay type: in vivo, human; conditions: 15 mg once daily
Description: as §1, with “procedures. […]” for “procedures.”
as §2, with “EOT. […]” for “EOT.”

[4] = biological target: Kca3.1 potassium ion channel (Homo sapiens, UniProt O15554); test: Kca3.1 channel activity (stated mechanism); assay type: biochemical
[5] = Nonclinical studies: brain penetration and ADME profile
[6] = Nonclinical studies: toxicological profile

Cc1sc2cc(Cl)ccc2c1-c1ccc(N2CCO[C@H](CNC3CCC3)C2)c(C(=O)O)c1 [Compound of Formula (I)]
responder analysis of mean daily average pain score (≥30% or ≥50% reduction) versus placebo ([1]; 15 mg once daily): no statistically significant differences | change from baseline in mean daily average pain score versus placebo ([1]; Weeks 2, 6 and 7, FIG. 1): statistically significant treatment differences in favor of Compound of Formula (I) | change from baseline in mean daily average pain score (NRS 0-10), primary endpoint ([1]; baseline to Week 8, 15 mg oral once daily, placebo −1.26): −1.60 | FIQR total score improvement from baseline, LS mean difference versus placebo ([2]; EOT, LOCF imputation, P=0.050): −3.75 | FIQR overall impact subscale, LS mean difference versus placebo ([2]; Week 4, P=0.018): −1.34 | FIQR total score reduction from baseline, LS mean difference versus placebo ([2]; Week 4, P=0.033): −4.14 | FIQR symptoms subscale, LS mean difference versus placebo ([2]; Week 4, P=0.039): −3.73 | FIQR function subscale, LS mean difference versus placebo ([2]; Week 4, P=0.103): −2.97 | reduction from baseline in FIQR function, symptoms subscale, or overall impact subscale versus placebo ([2]; baseline to Week 8): no statistically significant differences | FIQR total score improvement from baseline, LS mean difference versus placebo ([2]; baseline to Week 8, mBOCF imputation, P=0.036): −4.10 | FIQR total score reduction from baseline, LS mean difference versus placebo ([2]; baseline to Week 8, MMRM analysis, P=0.093): −3.27 | overall patient improvement assessed by PGIC versus placebo [3]: no statistically significant differences | action on Kca3.1 potassium ion channel [4]: opener | brain penetration ([5]; nonclinical): poor brain penetration | absorption, distribution, metabolism, and excretion (ADME) profile ([5]; nonclinical studies): acceptable | toxicological profile [6]: acceptable toxicological profile
